Test results published in patent US20250122183A1 (Pfizer Inc., priority 2023, published 2025).

Legend:
Format in all cases: biochemical
KAT6A Full length enzyme = KAT6A Full length enzyme (Homo sapiens (Human), UniProt Q92794); assay: KAT6A assay (SAMDI-MS acetylation of H3 1-21 peptide); conditions: Morrison equation fit; replicate number in parentheses; read-out: KAT6A Ki (nM) (replicate number)
[1] = target: KAT7+JADE1+EAF6+ING5 4 protein complex (Homo sapiens (Human), UniProt O95251); assay: KAT7 JADE1 assay (SAMDI-MS acetylation of H3 1-21 peptide); conditions: Morrison equation fit; replicate number in parentheses; read-out: KAT7 JADE1 Ki (nM) (replicate number)
KAT8 Full length enzyme = KAT8 Full length enzyme (Homo sapiens (Human), UniProt Q9H7Z6); assay: KAT8 assay (SAMDI-MS acetylation of H3 1-21 peptide); conditions: Morrison equation fit; replicate number in parentheses; read-out: KAT8 Ki (nM) (replicate number)
KAT8 Full length enzyme, sequence (Q9H7Z6 whole entry): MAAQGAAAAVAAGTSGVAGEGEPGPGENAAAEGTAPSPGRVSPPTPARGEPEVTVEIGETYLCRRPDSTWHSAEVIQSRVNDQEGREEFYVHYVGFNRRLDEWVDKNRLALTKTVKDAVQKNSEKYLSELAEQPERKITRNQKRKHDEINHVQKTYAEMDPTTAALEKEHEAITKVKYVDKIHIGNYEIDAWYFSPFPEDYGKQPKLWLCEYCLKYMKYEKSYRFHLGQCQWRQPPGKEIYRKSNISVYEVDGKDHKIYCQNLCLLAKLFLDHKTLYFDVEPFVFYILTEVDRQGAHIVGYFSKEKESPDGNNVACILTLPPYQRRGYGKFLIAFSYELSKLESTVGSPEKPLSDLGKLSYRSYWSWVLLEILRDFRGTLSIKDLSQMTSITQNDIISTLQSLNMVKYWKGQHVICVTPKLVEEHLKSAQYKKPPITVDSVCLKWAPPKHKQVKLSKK

KAT5 Full length enzyme = KAT5 Full length enzyme (Homo sapiens (Human), UniProt Q92993); assay: KAT5 assay (SAMDI-MS acetylation of H4 1-21 peptide); conditions: Morrison equation fit; replicate number in parentheses; read-out: KAT5 Ki (nM) (replicate number)
KAT5 Full length enzyme, sequence (Q92993 whole entry): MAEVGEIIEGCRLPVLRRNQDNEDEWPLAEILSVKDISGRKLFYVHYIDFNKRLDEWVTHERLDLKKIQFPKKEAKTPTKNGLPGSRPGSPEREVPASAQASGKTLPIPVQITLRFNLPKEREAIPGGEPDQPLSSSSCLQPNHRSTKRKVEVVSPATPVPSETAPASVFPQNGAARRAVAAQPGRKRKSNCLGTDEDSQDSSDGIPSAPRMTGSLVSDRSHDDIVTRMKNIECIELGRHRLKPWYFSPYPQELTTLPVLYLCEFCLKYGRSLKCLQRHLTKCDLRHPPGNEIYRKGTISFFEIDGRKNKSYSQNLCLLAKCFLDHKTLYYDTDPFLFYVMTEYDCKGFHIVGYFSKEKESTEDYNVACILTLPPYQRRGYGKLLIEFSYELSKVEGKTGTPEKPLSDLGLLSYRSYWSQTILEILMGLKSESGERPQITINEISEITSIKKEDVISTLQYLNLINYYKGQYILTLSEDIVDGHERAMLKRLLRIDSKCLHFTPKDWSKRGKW

KAT6A Full length enzyme, sequence (Q92794 other isoform, or with tags, fused parts or gaps): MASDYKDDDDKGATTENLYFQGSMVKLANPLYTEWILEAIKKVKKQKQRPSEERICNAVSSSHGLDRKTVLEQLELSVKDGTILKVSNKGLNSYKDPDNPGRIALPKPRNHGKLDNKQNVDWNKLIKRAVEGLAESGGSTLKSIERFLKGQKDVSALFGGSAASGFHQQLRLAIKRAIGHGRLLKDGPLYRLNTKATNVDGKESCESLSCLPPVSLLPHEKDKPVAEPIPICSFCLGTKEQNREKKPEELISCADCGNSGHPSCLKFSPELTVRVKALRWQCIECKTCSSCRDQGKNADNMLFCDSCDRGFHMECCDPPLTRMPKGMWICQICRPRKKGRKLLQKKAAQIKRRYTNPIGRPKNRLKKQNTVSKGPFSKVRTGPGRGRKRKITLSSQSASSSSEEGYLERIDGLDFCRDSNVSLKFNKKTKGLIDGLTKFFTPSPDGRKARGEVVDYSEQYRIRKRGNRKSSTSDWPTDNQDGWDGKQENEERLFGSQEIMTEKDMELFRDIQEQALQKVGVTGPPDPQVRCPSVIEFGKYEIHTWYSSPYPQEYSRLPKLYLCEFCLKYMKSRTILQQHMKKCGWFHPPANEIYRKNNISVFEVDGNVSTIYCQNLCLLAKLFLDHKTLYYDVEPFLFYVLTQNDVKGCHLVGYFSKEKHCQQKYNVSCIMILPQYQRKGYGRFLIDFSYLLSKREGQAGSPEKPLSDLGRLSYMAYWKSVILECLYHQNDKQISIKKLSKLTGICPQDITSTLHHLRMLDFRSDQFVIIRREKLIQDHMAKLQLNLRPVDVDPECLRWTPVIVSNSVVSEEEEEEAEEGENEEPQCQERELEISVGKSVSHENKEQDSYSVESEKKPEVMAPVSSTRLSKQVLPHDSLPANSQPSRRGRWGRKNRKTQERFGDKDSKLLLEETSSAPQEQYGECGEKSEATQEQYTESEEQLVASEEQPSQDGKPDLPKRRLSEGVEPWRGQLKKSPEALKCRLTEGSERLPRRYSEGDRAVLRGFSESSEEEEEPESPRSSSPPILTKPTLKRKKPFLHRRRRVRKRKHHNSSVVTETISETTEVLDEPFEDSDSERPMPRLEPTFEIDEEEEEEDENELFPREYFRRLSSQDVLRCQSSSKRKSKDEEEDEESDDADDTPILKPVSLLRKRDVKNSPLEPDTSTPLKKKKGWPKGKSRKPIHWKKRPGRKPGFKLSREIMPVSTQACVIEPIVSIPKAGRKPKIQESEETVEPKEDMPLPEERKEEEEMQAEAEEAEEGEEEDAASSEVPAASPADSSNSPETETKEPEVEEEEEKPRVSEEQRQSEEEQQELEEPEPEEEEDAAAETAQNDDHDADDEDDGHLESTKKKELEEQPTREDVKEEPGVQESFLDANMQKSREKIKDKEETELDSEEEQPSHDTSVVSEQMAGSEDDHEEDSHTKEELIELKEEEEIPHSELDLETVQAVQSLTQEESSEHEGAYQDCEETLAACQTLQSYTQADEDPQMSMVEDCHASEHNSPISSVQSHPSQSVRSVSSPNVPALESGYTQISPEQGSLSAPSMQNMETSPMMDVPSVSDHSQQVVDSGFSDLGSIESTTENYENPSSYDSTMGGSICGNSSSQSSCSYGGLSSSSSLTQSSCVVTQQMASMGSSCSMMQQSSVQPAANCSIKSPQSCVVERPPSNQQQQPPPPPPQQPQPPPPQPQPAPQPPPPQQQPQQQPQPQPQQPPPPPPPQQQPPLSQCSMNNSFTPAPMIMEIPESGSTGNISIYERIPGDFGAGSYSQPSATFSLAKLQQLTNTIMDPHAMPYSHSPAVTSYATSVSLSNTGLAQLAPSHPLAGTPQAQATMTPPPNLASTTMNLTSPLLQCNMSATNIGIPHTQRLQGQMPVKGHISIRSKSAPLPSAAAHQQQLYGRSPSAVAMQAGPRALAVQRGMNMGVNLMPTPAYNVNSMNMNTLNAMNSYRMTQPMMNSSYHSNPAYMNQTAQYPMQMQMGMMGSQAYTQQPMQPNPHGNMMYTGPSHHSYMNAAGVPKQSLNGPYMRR

| SMILES | Ki (KAT6A Full length enzyme) [nM] | Ki [1] [nM] | Ki (KAT8 Full length enzyme) [nM] | Ki (KAT5 Full length enzyme) [nM] |
| --- | --- | --- | --- | --- |
| COc1cc2c(NS(=O)(=O)c3c(OC)cccc3OC)noc2cc1Nc1cc2n(n1)CCC21CC1 [Example 112, N-{6-[(5′,6′-dihydrospiro[cyclopropane-1,4′-pyrrolo[1,2-b]pyrazol]-2′-yl)amino]-5-methoxy-1,2-benzoxazol-3-yl}-2,6-dimethoxybenzene-1-sulfonamide] | 17.6 | 238 | > 13000 | 689 |
| CCn1nc(Nc2cc3onc(NS(=O)(=O)c4c(OC)cccc4OC)c3cc2OC)cc1C1CC1 [Example 113, N-{6-[(5-cyclopropyl-1-ethyl-1H-pyrazol-3-yl)amino]-5-methoxy-1,2-benzoxazol-3-yl}-2,6-dimethoxybenzene-1-sulfonamide] | 348 | 9090 | > 13000 | 50000 |
| COc1cc2c(NS(=O)(=O)c3c(OC)cccc3OC)noc2cc1Nc1cc(C(F)F)n[nH]1 [Example 115, N-(6-{[3-(difluoromethyl)-1H-pyrazol-5-yl]amino}-5-methoxy-1,2-benzoxazol-3-yl)-2,6-dimethoxybenzene-1-sulfonamide] | 0.1 | 32.2 | 8920 | 101 |
| COc1cc2c(NS(=O)(=O)c3c(OC)cccc3OC)noc2cc1Nc1cc(C(C)(C)C)n[nH]1 [Example 116, N-{6-[(3-tert-butyl-1H-pyrazol-5-yl)amino]-5-methoxy-1,2-benzoxazol-3-yl}-2,6-dimethoxybenzene-1-sulfonamide] | 11.8 | 98 | 7900 | 546 |
| COc1cc2c(NS(=O)(=O)c3c(OC)cccc3OC)noc2cc1Nc1cc(C2CC(F)(F)C2)[nH]n1 [Example 117, N-(6-{[5-(3,3-difluorocyclobutyl)-1H-pyrazol-3-yl]amino}-5-methoxy-1,2-benzoxazol-3-yl)-2,6-dimethoxybenzene-1-sulfonamide] | 5.3 | 25.1 | 10000 | 360 |
| COc1cc2c(NS(=O)(=O)c3c(OC)cc(-c4ccccn4)cc3OC)noc2cc1Nc1cc(C2CC2)n[nH]1 [Example 118, N-{6-[(3-cyclopropyl-1H-pyrazol-5-yl)amino]-5-methoxy-1,2-benzoxazol-3-yl}-2,6-dimethoxy-4-(pyridin-2-yl)benzene-1-sulfonamide] | 0.9 | 8.1 | 731 | 66.1 |
| COc1cc2c(NS(=O)(=O)c3c(OC)cc(-c4ccccc4)cc3OC)noc2cc1Nc1cc(C2CC2)n[nH]1 [Example 119, N-{6-[(3-cyclopropyl-1H-pyrazol-5-yl)amino]-5-methoxy-1,2-benzoxazol-3-yl}-3,5-dimethoxy[1,1′-biphenyl]-4-sulfonamide] | 0.2 | 3.6 | 156 | 19.4 |
| COc1cc2c(NS(=O)(=O)c3c(OC)cc(-c4ccncc4)cc3OC)noc2cc1Nc1cc(C2CC2)n[nH]1 [Example 120, N-{6-[(3-cyclopropyl-1H-pyrazol-5-yl)amino]-5-methoxy-1,2-benzoxazol-3-yl}-2,6-dimethoxy-4-(pyridin-4-yl)benzene-1-sulfonamide] | 0.8 | 10.8 | 640 | 236 |
| COc1cc2c(NS(=O)(=O)c3c(OC)cc(-c4cnn(C)c4)cc3OC)noc2cc1Nc1cc(C2CC2)n[nH]1 [Example 123, N-{6-[(3-cyclopropyl-1H-pyrazol-5-yl)amino]-5-methoxy-1,2-benzoxazol-3-yl}-2,6-dimethoxy-4-(1-methyl-1H-pyrazol-4-yl)benzene-1-sulfonamide] | 0.8 | 10.4 | 189 | 246 |
| CCc1cc(Nc2cc3onc(NS(=O)(=O)c4ccc(C(F)(F)F)cc4Cl)c3cc2OC)n[nH]1 [Example 124, 2-chloro-N-{6-[(5-ethyl-1H-pyrazol-3-yl)amino]-5-methoxy-1,2-benzoxazol-3-yl}-4-(trifluoromethyl)benzene-1-sulfonamide] | 51.3 | 47.9 | 8220 | 4570 |
| CCc1cc(Nc2cc3onc(NS(=O)(=O)c4cccc(Oc5ccccc5C)c4)c3cc2OC)n[nH]1 [Example 125, N-{6-[(5-ethyl-1 H-pyrazol-3-yl)amino]-5-methoxy-1,2-benzoxazol-3-yl}-3-(2-methylphenoxy)benzene-1-sulfonamide] | 48.6 | 180 | > 13000 | 5090 |
| CCc1cc(Nc2cc3onc(NS(=O)(=O)c4cccc(Oc5ccc(C)cc5)c4)c3cc2OC)n[nH]1 [Example 126, N-{6-[(5-ethyl-1 H-pyrazol-3-yl)amino]-5-methoxy-1,2-benzoxazol-3-yl}-3-(4-methylphenoxy)benzene-1-sulfonamide] | 52.1 | 237 | > 13000 | 5040 |
| CCCc1ccc(S(=O)(=O)Nc2noc3cc(Nc4cc(CC)[nH]n4)c(OC)cc23)cc1 [Example 127, N-{6-[(5-ethyl-1 H-pyrazol-3-yl)amino]-5-methoxy-1,2-benzoxazol-3-yl}-4-propylbenzene-1-sulfonamide] | 32.8 | 175 | > 13000 | 3940 |
| CCc1cc(Nc2cc3onc(NS(=O)(=O)c4cccc(Oc5ccc(F)cc5)c4)c3cc2OC)n[nH]1 [Example 128, N-{6-[(5-ethyl-1 H-pyrazol-3-yl)amino]-5-methoxy-1,2-benzoxazol-3-yl}-3-(4-fluorophenoxy)benzene-1-sulfonamide] | 38.1 | 212 | > 13000 | 7830 |
| CCc1cc(Nc2cc3onc(NS(=O)(=O)c4ccc5c(c4)OCCO5)c3cc2OC)n[nH]1 [Example 129, N-{6-[(5-ethyl-1 H-pyrazol-3-yl)amino]-5-methoxy-1,2-benzoxazol-3-yl}-2,3-dihydro-1,4-benzodioxine-6-sulfonamide] | 56.8 | 244 | > 13000 | 5630 |
| CCc1cc(Nc2cc3onc(NS(=O)(=O)c4ccc(-c5ccccc5)cc4)c3cc2OC)n[nH]1 [Example 130, N-{6-[(5-ethyl-1 H-pyrazol-3-yl)amino]-5-methoxy-1,2-benzoxazol-3-yl}[1,1′-biphenyl]-4-sulfonamide] | 13 | 85.2 | 7520 | 2010 |
| CCc1cc(Nc2cc3onc(NS(=O)(=O)c4ccc(Oc5ccccc5)cc4)c3cc2OC)n[nH]1 [Example 132, N-{6-[(5-ethyl-1 H-pyrazol-3-yl)amino]-5-methoxy-1,2-benzoxazol-3-yl}-4-phenoxybenzene-1-sulfonamide] | 82.7 | 410 | > 13000 | 5520 |
| CCc1cc(Nc2cc3onc(NS(=O)(=O)c4ccc(OC)c(F)c4)c3cc2OC)n[nH]1 [Example 133, N-{6-[(5-ethyl-1 H-pyrazol-3-yl)amino]-5-methoxy-1,2-benzoxazol-3-yl}-3-fluoro-4-methoxybenzene-1-sulfonamide] | 78.7 | 321 | > 13000 | 6210 |
| CCc1cc(Nc2cc3onc(NS(=O)(=O)c4cc(Cl)ccc4Cl)c3cc2OC)n[nH]1 [Example 134, 2,5-dichloro-N-{6-[(5-ethyl-1 H-pyrazol-3-yl)amino]-5-methoxy-1,2-benzoxazol-3-yl}benzene-1-sulfonamide] | 34.3 | 185 | 9800 | 4550 |
| CCc1cc(Nc2cc3onc(NS(=O)(=O)c4cc(F)ccc4Br)c3cc2OC)n[nH]1 [Example 135, 2-bromo-N-{6-[(5-ethyl-1H-pyrazol-3-yl)amino]-5-methoxy-1,2-benzoxazol-3-yl}-5-fluorobenzene-1-sulfonamide] | 52.6 | 156 | > 13000 | 3080 |
| CCc1ccc(S(=O)(=O)Nc2noc3cc(Nc4cc(CC)[nH]n4)c(OC)cc23)cc1 [Example 136, 4-ethyl-N-{6-[(5-ethyl-1 H-pyrazol-3-yl)amino]-5-methoxy-1,2-benzoxazol-3-yl}benzene-1-sulfonamide] | 16.3 | 92.7 | > 13000 | 2940 |
| CCc1cc(Nc2cc3onc(NS(=O)(=O)c4cccc(-c5ccc(OC)cc5)c4)c3cc2OC)[nH]n1 [Example 137, N-{6-[(3-ethyl-1 H-pyrazol-5-yl)amino]-5-methoxy-1,2-benzoxazol-3-yl}-4′-methoxy[1,1′-biphenyl]-3-sulfonamide] | 12.9 | 9.7 | > 13000 | 1650 |
| COc1cc2c(NS(=O)(=O)c3c(OC)cc([C@@H]4CCCO4)cc3OC)noc2cc1Nc1cc(C2CC2)n[nH]1 [Example 140, N-{6-[(3-cyclopropyl-1H-pyrazol-5-yl)amino]-5-methoxy-1,2-benzoxazol-3-yl}-2,6-dimethoxy-4-[(2S)-oxolan-2-yl]benzene-1-sulfonamide] | 1.5 | 11.4 | 911 | 156 |
| COc1cc2c(NS(=O)(=O)c3c(OC)cc([C@H]4CCCO4)cc3OC)noc2cc1Nc1cc(C2CC2)n[nH]1 [Example 141, N-{6-[(3-cyclopropyl-1 H-pyrazol-5-yl)amino]-5-methoxy-1,2-benzoxazol-3-yl}-2,6-dimethoxy-4-[(2R)-oxolan-2-yl]benzene-1-sulfonamide] | 1 | 6.9 | 762 | 134 |
